{
  "source": "patent US20220315933A1",
  "about": "“SYSTEMS AND METHODS FOR SINGLE-STRAND BREAK SIGNALING AND REPAIR IN A CELL-FREE SYSTEM AND METHODS OF IDENTIFYING MODULATORS OF SINGLE-STRAND BREAK SIGNALING AND REPAIR” (University of North Carolina Charlotte, priority 2017, published 2022)",
  "molecules": {"B1": {"name": "geminin: MCM helicase inhibitor recombinant geminin protein (protein, UniProt O75496 1-209, looked up)", "Geminin": "MNPSMKQKQEEIKENIKNSSVPRRTLKMIQPSASGSLVGRENELSAGLSKRKHRNDHLTSTTSSPGVIVPESSENKNLGGVTQESFDLMIKENPSSQYWKEVAEKRRKALYEALKENEKLHKEIEQKDNEIARLKKENKELAEVAEHVQYMAELIERLNGEPLDNFESLDNQEFDSEEETVEDSLVEDSEIGTCAEGTVSSSTDAKPCI"}},
  "key": {"ATR-Chk1 DDR pathway [1]": {"tested_on": "ATR-Chk1 DDR pathway", "assay": "Defined SSB plasmid-induced checkpoint signaling in Xenopus HSS system (immunoblotting)", "format": "biochemical, Xenopus laevis", "details": "for SSB-induced Chk1 phosphorylation (Chk1 P-S344): HSS with SSB plasmid 75 ng/μL, 30 min incubation, inhibitor added", "procedure": "CTL or SSB plasmid was added to HSS at different concentrations as indicated, and incubated for 30 minutes. Extracts were examined via immunoblotting analysis for Chk1 phosphorylation (i.e., Chk1 P-Ser344) and total Chk1 (FIG. 8A). CTL or SSB plasmid was added to HSS at a final concentration of 75 ng/μL. After different time of incubation at room temperature, the extracts were examined via immunoblotting analysis (FIG. 8B). ATR inhibitor VE-822, ATM inhibitor KU55933, DNA-PK inhibitor NU7441, or recombinant geminin was added to HSS supplemented with CTL or SSB plasmid at a final concentration of […] for 30 minutes. Geminin or roscovitine was added to HSS supplemented with sperm chromatin and hydrogen peroxide. After a 45-min incubation, extracts were examined via immunoblotting analysis as indicated (FIG. 8F). CTL, SSB, or DSB plasmid was added to HSS at different concentrations as indicated. Samples were examined via immunoblotting analysis (FIG. 8G).\nCTL or SSB plasmid was added to HSS with the presence or absence of VE-822. After 30-min incubation, Chk1 phosphorylation, RPA32 phosphorylation, and Rad17 phosphorylation were examined via immunoblotting analysis as indicated in the image in FIG. 9A. CTL or SSB plasmid was added to NPE with the presence or absence of VE-822 (ATR inhibitor) or Tautomycin (phosphatase inhibitor). Samples were examined via immunoblotting analysis as illustrated in FIG. 9B. For FIG. 9C, CTL or SSB plasmid was added to mock- or Pol alpha-depleted HSS. After 30-min incubation, samples were analyzed via immunoblotting analysis, as illustrated.\n(§1) The care and use of Xenopus laevis was approved by the Institutional Animal Care and Use Committee (IACUC) of the University of North Carolina at Charlotte. The preparation of Xenopus LSS, HSS, and NPE were described previously (35,36,39, which are hereby incorporated by reference herein). […] DNA synthesis analysis was performed as previously described (11,35, which are hereby incorporated by reference herein). ImageQuat software was used to quantify the DNA synthesis from HSS/NPE system. […] DNA-bound fractions from the HSS system were isolated after spinning extracts through a sucrose cushion (0.9 M sucrose, 2.5 mM MgCl2, 50 mM KCl, 10 mM HEPES, pH7.7) at 10,000 rpm for 2 minutes at 4° C. with a swinging bucket.\nTo determine whether a defined SSB structure triggers a DDR pathway, different concentrations of SSB or CTL plasmid structure were added to HSS, followed by immunoblotting analysis after a 30-minute incubation."}, "U2OS cells": {"tested_on": "U2OS cells", "assay": "Hydrogen peroxide-induced ATR-Chk1 DDR in human U2OS cells (immunoblotting)", "format": "cell-based", "details": "asynchronized U2OS cells; VE-822 5 μM 1 hour, then hydrogen peroxide 1.25 mM 4 hours", "procedure": "FIGS. 11A-11B illustrate that hydrogen peroxide induces Chk1 phosphorylation and RPA32 phosphorylation in an ATR-dependent manner in human U2OS cells. FIG. 11A is a digital image of immunoblotting analysis of asynchronized U2OS cells treated with H2O2 and/or VE-822. Cell lysates were analyzed via immunoblotting analysis as indicated. G1 synchronized U2OS cells were treated with H2O2 and/or VE-822. Cell lysates were analyzed via immunoblotting analysis as indicated and illustrated in FIG. 11B.\nHuman U2OS cells were purchased from the American Type Culture Collection (ATCC) and cultured in Dulbecco's Modified Eagle Medium (DMEM, Life Technologies) supplemented with 10% fetal bovine serum (FBS, Invitrogen), penicillin (100 U/mL) and streptomycin (100 μg/mL, Life Technologies) in incubator at 37° C. and 5% CO2. […] Cells were treated with VE-822 (5 μM) in culture medium for 1 hour followed by hydrogen peroxide treatment (1.25 mM) for 4 hours. Then cells were collected and split for immunoblotting analysis and FACS analysis. For immunoblotting analysis, equal total proteins of cell lysates (10 μg per lane) were loaded and Tubulin was used for loading control. For FACS analysis, cells were further fixed and stained with DAPI followed by cell cycle profiling using FACS machine (BD LSRFortessa) following manufacturer's standard protocol."}, "ATR-Chk1 DDR pathway [2]": {"tested_on": "ATR-Chk1 DDR pathway", "assay": "Plasmid-induced Chk1 phosphorylation in NPE (immunoblotting)", "format": "biochemical, Xenopus laevis", "procedure": "After 30-min incubation, Chk1 phosphorylation, RPA32 phosphorylation, and Rad17 phosphorylation were examined via immunoblotting analysis as indicated in the image in FIG. 9A. […] Samples were examined via immunoblotting analysis as illustrated in FIG. 9B. For FIG. 9C, CTL or SSB plasmid was added to mock- or Pol alpha-depleted HSS. After 30-min incubation, samples were analyzed via immunoblotting analysis, as illustrated.\nas §1"}, "SSB repair": {"tested_on": "SSB repair", "assay": "SSB repair of SSB plasmid in the HSS system (agarose gel)", "format": "biochemical, Xenopus laevis", "details": "SSB plasmid in HSS with or without VE-822; circular/(circular+nicked)", "procedure": "FIGS. 6A-6D illustrate verification and analysis of the defined DNA structures. FIG. 6A is an image verifying the defined SSB structure on agarose gel (Ethidium bromide staining). CTL plasmid was added to HSS for different time. Then DNA samples were isolated and treated with or without Sbfl, and analyzed on agarose gel (Ethidium bromide staining) as shown in FIG. 6B. For FIG. 6C, the SSB plasmid was added to HSS with or without VE-822 for different time as indicated. SSB repair products were isolated and examined on agarose gel (Ethidium bromide staining). FIG. 6D is a graph quantifying SSB repair capacity (circular/(circular+nicked)×100) with or without VE-822 treatment in the HSS system from FIG. 6C.\nNuclease-free water was added to each reaction of HSS that was incubated with SSB or DSB plasmid to a total of 300 μL. Equal volume of phenol-chloroform was added to the mixture and resuspended up and down 5 times and spin for 5 minutes at 13,000 rpm at room temperature. The top aqueous layer was transferred to a new tube and repeat phenol-chloroform extraction. […] Then the purified DNA repair products were analyzed on agarose gel and stained with ethidium bromide. […]"}, "ATR-Chk1 DDR pathway [3]": {"tested_on": "ATR-Chk1 DDR pathway", "assay": "Hydrogen peroxide-induced Chk1 phosphorylation in HSS supplemented with sperm chromatin (immunoblotting)", "format": "biochemical, Xenopus laevis", "details": "HSS with sperm chromatin and hydrogen peroxide, 45-min incubation", "procedure": "FIGS. 8A-8G illustrate that the ATR-Chk1 DNA damage response pathway is induced by the defined SSB structure in the HSS system. CTL or SSB plasmid was added to HSS at different concentrations as indicated, and incubated for 30 minutes. Extracts were examined via immunoblotting analysis for Chk1 phosphorylation (i.e., Chk1 P-Ser344) and total Chk1 (FIG. 8A). CTL or SSB plasmid was added to HSS at a final concentration of 75 ng/μL. After different time of incubation at room temperature, the extracts were examined via immunoblotting analysis (FIG. 8B). ATR inhibitor VE-822, ATM inhibitor KU55933, DNA-PK inhibitor NU7441, or recombinant geminin was added to HSS supplemented with CTL or SSB plasmid at a final concentration of […] for 30 minutes. Geminin or roscovitine was added to HSS supplemented with sperm chromatin and hydrogen peroxide. After a 45-min incubation, extracts were examined via immunoblotting analysis as indicated (FIG. 8F). CTL, SSB, or DSB plasmid was added to HSS at different concentrations as indicated. Samples were examined via immunoblotting analysis (FIG. 8G).\nThe care and use of Xenopus laevis was approved by the Institutional Animal Care and Use Committee (IACUC) of the University of North Carolina at Charlotte. […] ImageQuat software was used to quantify the DNA synthesis from HSS/NPE system. […]"}},
  "data": [
    {"molecule": "Nc1ccc2c3c(cccc13)C(=O)NC2=O", "note": "[4-Amino-1,8-naphthalimide]", "values": [
      {"measurement": "SSB-induced Chk1 phosphorylation (Chk1 P-S344)", "setting": "ATR-Chk1 DDR pathway [1]", "value": "enhanced"}
    ]},
    {"molecule": "O=c1cc(-c2cccc3c2Sc2ccccc2S3)oc(N2CCOCC2)c1", "note": "[KU55933]", "values": [
      {"measurement": "SSB-induced Chk1 phosphorylation (Chk1 P-S344)", "setting": "ATR-Chk1 DDR pathway [1]", "value": "almost had no effect"}
    ]},
    {"molecule": "O=c1cc(N2CCOCC2)oc2c(-c3cccc4c3sc3ccccc34)cccc12", "note": "[NU7441]", "values": [
      {"measurement": "SSB-induced Chk1 phosphorylation (Chk1 P-S344)", "setting": "ATR-Chk1 DDR pathway [1]", "value": "almost had no effect"}
    ]},
    {"molecule": "CNCc1ccc(-c2cc(-c3nc(-c4ccc(S(=O)(=O)C(C)C)cc4)cnc3N)on2)cc1", "note": "[VE-822]", "values": [
      {"measurement": "hydrogen peroxide-induced Chk1 phosphorylation", "setting": "U2OS cells", "value": "prevented"},
      {"measurement": "hydrogen peroxide-induced RPA32 phosphorylation", "setting": "U2OS cells", "value": "prevented"},
      {"measurement": "Chk1 phosphorylation events in NPE (SSB plasmid- and CTL plasmid-induced)", "setting": "ATR-Chk1 DDR pathway [2]; NPE with the presence of tautomycin", "value": "inhibited"},
      {"measurement": "SSB repair in the HSS system", "setting": "SSB repair", "value": "compromised"},
      {"measurement": "SSB-induced Chk1 phosphorylation (Chk1 P-S344)", "setting": "ATR-Chk1 DDR pathway [1]", "value": "compromised"},
      {"measurement": "SSB-induced RPA32 phosphorylation", "setting": "ATR-Chk1 DDR pathway [1]; HSS with SSB plasmid, 30 min", "value": "sensitive"},
      {"measurement": "SSB-induced Rad17 phosphorylation", "setting": "ATR-Chk1 DDR pathway [1]; HSS with SSB plasmid, 30 min", "value": "sensitive"}
    ]},
    {"molecule": "C[C@@]1(CO)[C@H](O)CC[C@@]2(C)[C@H]1CC[C@H]1C[C@@H]3C[C@@]12CC[C@]3(O)CO", "note": "[aphidicolin]", "values": [
      {"measurement": "SSB-induced Chk1 phosphorylation (Chk1 P-S344)", "setting": "ATR-Chk1 DDR pathway [1]", "value": "not affected"}
    ]},
    {"molecule": "CC[C@H](CO)Nc1nc(NCc2ccccc2)c2ncn(C(C)C)c2n1", "note": "[rescovitine]", "values": [
      {"measurement": "hydrogen peroxide-induced Chk1 phosphorylation in the HSS", "setting": "ATR-Chk1 DDR pathway [3]", "value": "had no effect"}
    ]},
    {"molecule": "CO[C@H]([C@H](O)CC(=O)[C@@H](C)[C@@H](O)CC[C@@H](C)[C@@H]1O[C@]2(CC[C@@H](C)[C@H](CC[C@H](C)C(C)=O)O2)CC[C@@H]1C)[C@H](OC(=O)C[C@@H](O)C1=C(C)C(=O)OC1=O)C(C)C", "note": "[tautomycin]", "values": [
      {"measurement": "SSB plasmid-triggered Chk1 phosphorylation in NPE", "setting": "ATR-Chk1 DDR pathway [2]; with the presence of tautomycin, no detectable Chk1 phosphorylation without it", "value": "very robust"}
    ]},
    {"molecule": "B1", "values": [
      {"measurement": "hydrogen peroxide-induced Chk1 phosphorylation in the HSS", "setting": "ATR-Chk1 DDR pathway [3]", "value": "had no effect"},
      {"measurement": "SSB-induced Chk1 phosphorylation (Chk1 P-S344)", "setting": "ATR-Chk1 DDR pathway [1]", "value": "not impaired"}
    ]}
  ]
}
